From article PMC8700683, “A Novel Neutral and Mesophilic β-Glucosidase from Coral Microorganisms for Efficient Preparation of Gentiooligosaccharides” (Foods, 2021)

What was measured:
Blg163 [1] = tested on: T1, Blg163; assay: hydrolysis kinetics, […] substrate; assay type: biochemical, uncultured bacterium (coral microbial metagenome); conditions: citrate buffer, pH 7.0, 30 °C, 5 min
T1 construct: full-length ORF 1341 bp, 447 residues (Met1 to Ser447), GH1; pEASY-E1 vector, His-tag (Ni-NTA) apparently kept; expressed in E. coli BL21(DE3) pLysS; best hits Rhodobacteraceae bacterium NVK46632.1 (homologue)

Blg163 [2] = tested on: T1, Blg163; assay: p-nitrophenol release, absorbance at […] nm; assay type: biochemical, uncultured bacterium (coral microbial metagenome); conditions: citrate buffer, pH 7.0, 30 °C, 5 min

SMILES | Km (Blg163 [1]) [µM] | Km (Blg163 [2]) [µM]
OC[C@H]1O[C@@H](OC[C@H]2OC(O)[C@H](O)[C@@H](O)[C@@H]2O)[C@H](O)[C@@H](O)[C@@H]1O (stereo partly drawn) [gentiobiose] | 720 | 
OC[C@H]1O[C@@H](O[C@H]2[C@H](O)[C@@H](O)C(O)O[C@@H]2CO)[C@H](O)[C@@H](O)[C@@H]1O (stereo partly drawn) [cellobiose] | 450 | 
O=[N+]([O-])c1ccc(O[C@@H]2O[C@H](CO)[C@@H](O)[C@H](O)[C@H]2O)cc1 [p-Nitrophenyl-β-D-glucopyranoside] |  | 320
